{"source": "patent US6737383B1", "about": "“Herbicidal oxadiazolidines” (priority 1999, dated 2004)", "key": {"[1]": {"tested_on": "duck salad", "assay": "Test B flood test duck salad", "assay_type": "in vivo, Heteranthera limosa", "summary_of_the_method": "(§1)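 Read-out is a visual response score from 0 (no effect) to 10 (complete control), assigned by comparison with untreated controls. Treatment was applied at the 2-leaf stage, and plants stayed in the greenhouse for twelve to sixteen days before scoring.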"}, "[2]": {"tested_on": "rice", "assay": "Test B flood test rice", "assay_type": "in vivo, Oryza sativa", "summary_of_the_method": "as §1"}, "[3]": {"tested_on": "giant foxtail", "assay": "Test B pre/postemergence giant foxtail", "assay_type": "in vivo, Setaria faberii", "summary_of_the_method": "(§2)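 Herbicidal effect was estimated by eye on a ten-point control scale after plants spent twelve to sixteen days in a greenhouse following soil or foliar treatment. Foliar sprays targeted plants at one to four leaves; all doses were formulated in a non-phytotoxic solvent with surfactant.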"}, "[4]": {"tested_on": "morningglory", "assay": "Test B pre/postemergence morningglory", "assay_type": "in vivo, Ipomoea hederacea", "summary_of_the_method": "as §2"}, "[5]": {"settings": "Rate 62 g/ha, flood test species, Pre-emergence, visual evaluation after twelve to sixteen days"}, "[6]": {"settings": "Rate 125 g/ha, under heading Pre-emergence, flood test species, visual evaluation after twelve to sixteen days"}, "[7]": {"settings": "Rate 250 g/ha, Pre-emergence (flood test species), scale 0 to 10, 0 is no effect, 10 is complete control"}, "[8]": {"settings": "Rate 500 g/ha, Pre-emergence section of Table B, 0 to 10 scale (0 no effect, 10 complete control)"}, "[9]": {"settings": "Postemergence, Rate 62 g/ha, scale of 0 to 10, 0 is no effect, 10 is complete control"}, "[10]": {"settings": "Postemergence, Rate 125 g/ha, scale 0 to 10, 0 is no effect, 10 is complete control"}, "[11]": {"settings": "Postemergence, Rate 500 g/ha, scale of 0 to 10 where 0 is no effect and 10 is complete control"}, "[12]": {"settings": "Preemergence, Rate 62 g/ha, scale 0 to 10 (0 no effect, 10 complete control)"}, "[13]": {"settings": "Preemergence, Rate 125 g/ha, scale 0 to 10, 0 is no effect, 10 is complete control"}, "[14]": {"settings": "Preemergence, Rate 500 g/ha, scale of 0 to 10 where 0 is no effect and 10 is complete control"}, "[15]": {"settings": "Rate 250 g/ha, Postemergence, scale of 0 to 10 where 0 is no effect and 10 is complete control"}, "[16]": {"settings": "Postemergence, Rate 62 g/ha, scale 0 to 10, 0 is no effect, 10 is complete control"}, "[17]": {"settings": "Rate 125 g/ha, Postemergence section (flood test species), scale 0 to 10, 0 no effect, 10 complete control"}, "[18]": {"settings": "Rate 500 g/ha, Postemergence section of Table B, 0 to 10 scale (0 no effect, 10 complete control)"}, "[19]": {"settings": "flood test, listed under Postemergence, Rate 250 g/ha, scale 0 to 10, 0 no effect, 10 complete control"}, "[20]": {"settings": "Postemergence, Rate 250 g/ha, scale 0 to 10, 0 no effect, 10 complete control"}, "[21]": {"settings": "Preemergence, Rate 31 g/ha, visual rating, scale 0 to 10 (0 no effect, 10 complete control)"}, "[22]": {"settings": "Preemergence, Rate 62 g/ha, scale 0 to 10, 0 is no effect, 10 is complete control"}, "[23]": {"settings": "Preemergence, Rate 125 g/ha, scale 0 to 10 (0 no effect, 10 complete control)"}, "[24]": {"settings": "Preemergence, Rate 250 g/ha, scale of 0 to 10 where 0 is no effect and 10 is complete control"}, "[25]": {"settings": "Rate 31 g/ha, Postemergence, scale 0 to 10"}, "[26]": {"settings": "Rate 125 g/ha, Postemergence, scale 0 to 10, 0 no effect, 10 complete control"}, "[27]": {"settings": "Rate 62 g/ha, headed Pre-emergence (flood test species), scale 0 to 10 (0 no effect, 10 complete control)"}, "[28]": {"settings": "Rate 125 g/ha, Pre-emergence, flood test species, scale 0 to 10 where 0 is no effect and 10 is complete control"}, "[29]": {"settings": "Rate 250 g/ha, Pre-emergence, flood-test species, scale 0 to 10, 0 is no effect, 10 is complete control"}, "[30]": {"settings": "Rate 500 g/ha, Pre-emergence, flood test species, scale 0 to 10 (0 no effect, 10 complete control)"}, "[31]": {"settings": "Preemergence, Rate 62 g/ha, scale of 0 to 10 where 0 is no effect and 10 is complete control"}, "[32]": {"settings": "Rate 62 g/ha, Postemergence, scale 0 to 10 (0 no effect, 10 complete control)"}, "[33]": {"settings": "Rate 125 g/ha, Postemergence, scale of 0 to 10 where 0 is no effect and 10 is complete control"}, "[34]": {"settings": "Rate 500 g/ha, Postemergence, scale 0 to 10, 0 no effect, 10 complete control"}}, "data": [{"smiles": "CC(C)N(C(=O)n1oc(=O)n(CC2CC2)c1=O)c1ccccc1", "note": "[Compound 568]", "values": [{"measurement": "Plant response rating, Ducksalad (0 to 10 scale, 0 is no effect, 10 is complete control)", "setting": "[1]; [5]", "value": 0}, {"measurement": "Ducksalad plant response rating (0 to 10 scale, 0 is no effect, 10 is complete control)", "setting": "[1]; [6]", "value": 0}, {"measurement": "Ducksalad plant response rating", "setting": "[1]; [7]", "value": 0}, {"measurement": "Ducksalad plant response rating", "setting": "[1]; [8]", "value": 2}, {"measurement": "Plant response rating, Rice (0 to 10 scale, 0 is no effect, 10 is complete control)", "setting": "[2]; [5]", "value": 1}, {"measurement": "Rice plant response rating (0 to 10 scale, 0 is no effect, 10 is complete control)", "setting": "[2]; [6]", "value": 1}, {"measurement": "Rice plant response rating", "setting": "[2]; [7]", "value": 0}, {"measurement": "Rice plant response rating", "setting": "[2]; [8]", "value": 0}, {"measurement": "Giant foxtail plant response rating", "setting": "[3]; [9]", "value": 7}, {"measurement": "Giant foxtail plant response rating", "setting": "[3]; [10]", "value": 9}, {"measurement": "Plant response rating, Giant foxtail", "setting": "[3]; [11]", "value": 9}, {"measurement": "Giant foxtail plant response rating", "setting": "[3]; [12]", "value": 9}, {"measurement": "Giant foxtail plant response rating", "setting": "[3]; [13]", "value": 10}, {"measurement": "Giant foxtail plant response rating (0 to 10 scale)", "setting": "[3]; Preemergence, Rate 250 g/ha", "value": 10}, {"measurement": "Giant foxtail plant response rating", "setting": "[3]; [14]", "value": 10}, {"measurement": "Plant response rating, Giant foxtail", "setting": "[3]; [15]", "value": 9}, {"measurement": "Morningglory plant response rating", "setting": "[4]; [9]", "value": 7}, {"measurement": "Morningglory plant response rating", "setting": "[4]; [10]", "value": 10}, {"measurement": "Plant response rating, Morningglory", "setting": "[4]; [11]", "value": 10}, {"measurement": "Morningglory plant response rating", "setting": "[4]; [12]", "value": 0}, {"measurement": "Morningglory plant response rating", "setting": "[4]; [13]", "value": 0}, {"measurement": "Morningglory plant response rating (0 to 10 scale)", "setting": "[4]; Preemergence, Rate 250 g/ha", "value": 2}, {"measurement": "Morningglory plant response rating", "setting": "[4]; [14]", "value": 6}, {"measurement": "Plant response rating, Morningglory", "setting": "[4]; [15]", "value": 10}]}, {"smiles": "CCN(C(=O)n1oc(=O)n(-c2ccc(C)cc2C)c1=O)C1CCCCC1", "note": "[Compound 26]", "values": [{"measurement": "Ducksalad plant response rating", "setting": "[1]; [16]", "value": 0}, {"measurement": "Ducksalad plant response rating", "setting": "[1]; [17]", "value": 0}, {"measurement": "Ducksalad plant response rating", "setting": "[1]; [18]", "value": 0}, {"measurement": "Ducksalad plant response rating", "setting": "[1]; [19]", "value": 0}, {"measurement": "Rice plant response rating", "setting": "[2]; [16]", "value": 0}, {"measurement": "Rice plant response rating", "setting": "[2]; [17]", "value": 0}, {"measurement": "Rice plant response rating", "setting": "[2]; [18]", "value": 0}, {"measurement": "Rice plant response rating", "setting": "[2]; [19]", "value": 0}, {"measurement": "Giant foxtail plant response rating", "setting": "[3]; [16]", "value": 0}, {"measurement": "Giant foxtail plant response rating", "setting": "[3]; [20]", "value": 0}, {"measurement": "Giant foxtail plant response rating", "setting": "[3]; [21]", "value": 0}, {"measurement": "Plant response rating, Giant foxtail", "setting": "[3]; [22]", "value": 0}, {"measurement": "Plant response rating, Giant foxtail", "setting": "[3]; [23]", "value": 0}, {"measurement": "Plant response rating, Giant foxtail", "setting": "[3]; [24]", "value": 4}, {"measurement": "Giant foxtail plant response rating", "setting": "[3]; [25]", "value": 0}, {"measurement": "Giant foxtail plant response rating", "setting": "[3]; [26]", "value": 0}, {"measurement": "Morningglory plant response rating", "setting": "[4]; [16]", "value": 1}, {"measurement": "Morningglory plant response rating", "setting": "[4]; [20]", "value": 3}, {"measurement": "Morningglory plant response rating", "setting": "[4]; [21]", "value": 0}, {"measurement": "Plant response rating, Morningglory", "setting": "[4]; [22]", "value": 0}, {"measurement": "Plant response rating, Morningglory", "setting": "[4]; [23]", "value": 0}, {"measurement": "Plant response rating, Morningglory", "setting": "[4]; [24]", "value": 0}, {"measurement": "Morningglory plant response rating", "setting": "[4]; [25]", "value": 0}, {"measurement": "Morningglory plant response rating", "setting": "[4]; [26]", "value": 1}]}, {"smiles": "CC(C)N(C(=O)n1oc(=O)n(CCCN(C)C)c1=O)c1ccc(F)cc1", "note": "[Compound 323]", "values": [{"measurement": "Ducksalad plant response rating", "setting": "[1]; [27]", "value": 0}, {"measurement": "Ducksalad plant response rating", "setting": "[1]; [28]", "value": 0}, {"measurement": "Ducksalad plant response rating", "setting": "[1]; [29]", "value": 0}, {"measurement": "Ducksalad plant response rating", "setting": "[1]; [30]", "value": 0}, {"measurement": "Rice plant response rating", "setting": "[2]; [27]", "value": 0}, {"measurement": "Rice plant response rating", "setting": "[2]; [28]", "value": 0}, {"measurement": "Rice plant response rating", "setting": "[2]; [29]", "value": 0}, {"measurement": "Rice plant response rating", "setting": "[2]; [30]", "value": 0}, {"measurement": "Giant foxtail plant response rating", "setting": "[3]; [31]", "value": 0}, {"measurement": "Giant foxtail plant response rating (0 to 10 scale)", "setting": "[3]; Preemergence, Rate 125 g/ha", "value": 0}, {"measurement": "Giant foxtail plant response rating", "setting": "[3]; [24]", "value": 0}, {"measurement": "Giant foxtail plant response rating", "setting": "[3]; [14]", "value": 2}, {"measurement": "Giant foxtail plant response rating", "setting": "[3]; [32]", "value": 0}, {"measurement": "Giant foxtail plant response rating", "setting": "[3]; [33]", "value": 0}, {"measurement": "Plant response rating, Giant foxtail", "setting": "[3]; [15]", "value": 0}, {"measurement": "Plant response rating, Giant foxtail", "setting": "[3]; [34]", "value": 0}, {"measurement": "Morningglory plant response rating", "setting": "[4]; [31]", "value": 0}, {"measurement": "Morningglory plant response rating (0 to 10 scale)", "setting": "[4]; Preemergence, Rate 125 g/ha", "value": 0}, {"measurement": "Morningglory plant response rating", "setting": "[4]; [24]", "value": 0}, {"measurement": "Morningglory plant response rating", "setting": "[4]; [14]", "value": 0}, {"measurement": "Morningglory plant response rating", "setting": "[4]; [32]", "value": 0}, {"measurement": "Morningglory plant response rating", "setting": "[4]; [33]", "value": 0}, {"measurement": "Plant response rating, Morningglory", "setting": "[4]; [15]", "value": 2}, {"measurement": "Plant response rating, Morningglory", "setting": "[4]; [34]", "value": 3}]}]}
